Experimental data: patent US9850538B2, “Methods for diagnosing and treating diabetes” (The Board of Trustees of the University of Illinois, priority 2015, dated 2017)
Where two headings read alike, the source gives them in different places.

What was measured:
elastase = assay: Flow cytometry of intracellular elastase in Ly6C+ and Ly6G+ spleen cells; assay type: in vivo, mice
Protocol: It was next investigated whether there was a correlation between the numbers of inflammatory cells expressing elastase and the health status. To this end, spleen cells from diabetic mice and those treated with TSA and cured of diabetes were surface labeled with FITC labeled anti-Ly6C antibody (to stain macrophages) and anti-Ly6G antibody (to stain neutrophils). After staining, cells were fixed, permeabilized and incubated with rabbit antibody against elastase, followed by treatment with TRITC-labeled goat anti-rabbit antibody. Cells were analyzed by flow cytometry for the cell surface expression of Ly6C or Ly6G and these cells were gated and analyzed for the intracellular expression of elastase. […] Similarly, the numbers of Ly6G+ neutrophils co-expressing elastase protein were also diminished in TSA treated and cured mice. Thus, TSA treatment abrogated spontaneously occurring T1D in NOD mice, which was negatively correlated with the frequency of both Ly6C+ macrophages and Ly6G+ neutrophils that co-express elastase.

[1] = tested on: inflammatory genes such as Cela3b, Cpb1, Pnlip and Cel; assay: Quantitative real time-PCR of selected top hit genes; assay type: in vivo, mice
Source text: Expression levels of selected top hit genes were verified in spleens by quantitative real time-PCR using primer sets that were validated following MIQE guidelines and RNA derived from spleens of mice that were different from those used for microarray analysis. The expression of inflammatory genes such as Cela3b (elastase 3), Cpb1 (carboxyepetidase B1), Pnlip (pancreatic lipase) and Cel (carboxyl ester lipase) was prominent in the spleens of diabetic mice. […] However, Ctrl (chymotrypsin-like) gene substantially over-expressed in the exocrine pancreas was not repressed by TSA treatment, indicating the selectivity of gene regulation by chromatin remodeling in the pancreata. In addition, the mRNA levels of Pnliprp-1 (pancreatic lipase-related protein 1), Pnlilrp-2, Ctrl, Ctrc and Cpa1 were not altered by TSA treatment.

[2] = drug administration in mice; cited from earlier work
elastase gene = details: cited from earlier work
NOD mice [3] = details: injection; cited from earlier work
NOD mice [4] = assay: Development of T1D in genetically susceptible NOD mice; assay type: in vivo; details: NOD mice injected before clinical onset, starting between 18 and 24 weeks of age
islets = assay: Confocal imaging of inflammatory cell infiltration in pancreatic sections; assay type: in vivo; details: drug-treated and cured mice
Protocol: To visualize the effect of TSA treatment on the infiltration of inflammatory cells in the pancreas, paraffin-embedded pancreatic sections were treated with antibodies against insulin, Ly6C+ macrophages and Ly6G+ neutrophils. Sections were then imaged on a confocal microscope and the images analyzed. Both Ly6C+ macrophages and Ly6G+ neutrophils were evident in the islets of diabetic mice, as identified by co-staining with an anti-insulin antibody. In contrast, both Ly6C+ macrophages and Ly6G+ neutrophils were absent in the islets of drug-treated and cured mice. […] Treatment with TSA effectively eradicated the infiltration of inflammatory cells and thereby provides protection against T1D in the mouse model.

spleen cells [5] = assay: Global gene expression profiling of spleen cells by microarray; assay type: in vivo, mice
Protocol: To understand the molecular mechanisms underlying protection against T1D bestowed by TSA treatment in NOD/Ltj mice, transcriptome (gene expression profiling) of spleen cells was analyzed by global gene expression profiling using a microarray approach. To this end, total RNA was isolated from diabetic and cured mice, converted into cRNA and then hybridized to AFFYMETRIX GENECHIP Mouse Genome 430 2.0 microarrays that contain 45,000 probe sets representing 34,000 mouse genes. Three-way analysis of gene expression in untreated-non-diabetic mice, overtly diabetic mice, and those cured by TSA treatment yielded 164 differentially regulated genes, filtered by an ANOVA p-value, 0.05. These highly regulated genes were used for hierarchical clustering. Microarray data sets were deposited at Gene Expression Omnibus (accession no. GSE 26461) (Jayaraman, et al. (2013) PLoS One 8:e55074).
Principal component analysis validated the up-regulation of a set of pro-inflammatory genes in uninduced spleens of overtly diabetic mice, and their repression by TSA treatment. This analysis clearly distinguished the genes that may be responsible for T1D manifestation and therefore of significant impact on the diagnosis of T1D in humans (Jayaraman, et al. (2013) PLoS One 8:e55074).

spleen cells [6] = assay: Flow cytometry of innate immune cell frequency in spleen; assay type: in vivo, mice
Protocol: Insulin-producing beta cells can be destroyed by the inflammatory cells and the pro-inflammatory genes that were identified by microarray analysis and further validated by quantitative RT-PCR. Therefore, it was determined whether amelioration of T1D by TSA treatment involves alteration in the frequency of innate immune cells that are likely to express the Cela3b gene. Therefore, T1D susceptible NOD mice were injected with TSA before the clinical onset of diabetes, starting between 18 and 24 weeks of age, and spleen cells were stained with fluorochrome-labeled antibodies and analyzed by flow cytometry. The numbers of both macrophages of the CD11b+Ly6C+ phenotype and neutrophils expressing CD11b+Ly6G+ determinants, known to exert inflammatory responses and tissue damage, increased in the spleen of overtly diabetic mice when compared to prediabetic mice.

islets of Langerhans = details: TSA treatment; cited from earlier work

CC(/C=C/C(=O)NO)=C\[C@@H](C)C(=O)c1ccc(N(C)C)cc1 [TSA, Trichostatin A]
numbers of Ly6G+ neutrophils co-expressing elastase protein (elastase; spleens of TSA treated and cured mice): diminished
numbers of Ly6C+ macrophages that contained elastase in the cytoplasm (elastase; spleens of cured versus diabetic mice): significantly lower numbers
Ctrl (chymotrypsin-like) gene expression ([1]; over-expressed in the exocrine pancreas, pancreata): not repressed
mRNA level of Cpa1 ([1]; qRT-PCR): not altered
mRNA level of Ctrc ([1]; qRT-PCR): not altered
mRNA level of Ctrl ([1]; qRT-PCR): not altered
mRNA level of Pnlilrp-2 ([1]; qRT-PCR): not altered
mRNA level of Pnliprp-1 (pancreatic lipase-related protein 1) ([1]; qRT-PCR): not altered
expression level of Cel (carboxyl ester lipase) ([1]; qRT-PCR, spleens): reduced the expression levels of these genes substantially
expression level of Cela3b (elastase 3) ([1]; qRT-PCR, spleens): reduced the expression levels of these genes substantially
expression level of Cpb1 (carboxyepetidase B1) ([1]; qRT-PCR, spleens): reduced the expression levels of these genes substantially
expression level of Pnlip (pancreatic lipase) ([1]; qRT-PCR, spleens): reduced the expression levels of these genes substantially
side effects or gross pathological changes [2]: did not result in obvious side effects or gross pathological changes
expression of the elastase gene (elastase gene; peripheral lymphoid organ spleen): significantly lowered
expression of the elastase gene (elastase gene; target organ pancreas): significantly lowered
development of T1D (NOD mice [3]): prevents the development of T1D
diabetes (NOD mice [4]): ameliorated diabetes
Ly6C+ macrophages in the islets (islets): absent
Ly6G+ neutrophils in the islets (islets): absent
set of genes (n=17) over-expressed in spleens of acutely diabetic mice (spleen cells [5]; microarray, spleens): repressed
expression of lipases Pnliprp1, Pnliprp2, Cel and Pnilp functionally related to Cela3b (spleen cells [5]; regulated along with Cela3b): downregulated
frequency of CD11b+F4/80+ macrophages (spleen cells [6]; spleen, flow cytometry): did not affect the frequency
frequency of CD11b+Ly6C+ macrophages (spleen cells [6]; spleen, flow cytometry): reduced the frequency
frequency of CD11b+Ly6G+ neutrophils (spleen cells [6]; spleen, flow cytometry): reduced the frequency
numbers of dendritic cells expressing CD11c determinant (spleen cells [6]; spleens, versus prediabetic and diabetic mice): Essentially, the same numbers
beta cells producing insulin (islets of Langerhans): preservation of the beta cells
inflammation surrounding the islets of Langerhans (islets of Langerhans): eradication of inflammation surrounding the islets of Langerhans
